The results in this text go back to patent publication US20250214993A1, “AROMATIC RING COMPOUND AND USE THEREOF” (SHANGHAI SHIJIANG BIOTECHNOLOGY CO., LTD, priority 2022, published 2025).

In one assay the test system is Con-NCI-H82 cell. As to the kind of experiment: Cell viability (Promega CellTiter-Glo, intracellular ATP), IC50 on Con-NCI-H82 cell. It is filed as cell-based. The following applies: Homo sapiens; normal untreated NCI-H82 cell (control). From the text: (§1) The expression of NNMT protein in NCI-H82 cell was overexpressed by inserting the NNMT gene into NCI-H82 cell using a viral vector, and the NNMT protein-overexpressing NCI-H82 cell (ov-NNMT NCI-H82 cell) was obtained. The normal and untreated NCI-H82 cell (Con-NCI-H82 cell) was used as control. The expressing content of NNMT protein in the ov-NNMT NCI-H82 cell and Con-NCI-H82 cell was detected using Western Blot assay (as shown in FIG. 1), it could be seen from FIG. 1 that the NNMT protein was overexpressed in the ov-NNMT NCI-H82 cell compared with the expression level of NNMT protein in the Con-NCI-H82 cell.
(§2) The cell viability was detected using the Promega CellTiter-Glo kit which reflected cell viability by measuring intracellular ATP content. The Con-NCI-H82 cell and ov-NNMT NCI-H82 cell was cultured in 10% fetal bovine serum-containing RPMI1640 medium (+P/S).
On the technique in general: ATP-based viability assays read luminescence as a measure of living cells.

Another assay relates to ov-NNMT NCI-H82 cell. Put plainly: Cell viability (Promega CellTiter-Glo, intracellular ATP), IC50 on NNMT-overexpressing NCI-H82 cell. It counts as cell-based. The following applies: Homo sapiens; NCI-H82 cell overexpressing NNMT protein.
Source text: as §1, §2

A word on the IC50: it is the concentration at which inhibition is half-maximal.

Take `Cc1cc(NCc2ccccc2)cc[n+]1CC(=O)c1ccc(C(F)(F)F)cc1` [AB27273]: the IC50 was determined as 187 nM in the assay on Con-NCI-H82 cell and 1540 nM in the assay on ov-NNMT NCI-H82 cell.
The matching figures for `Cc1cc(NCc2ccccc2)cc[n+]1CC(=O)c1ccc(OC(F)(F)F)cc1` [AB27274]: 664 nM and 4530 nM.
As for `Cc1cc(NCc2ccccc2)cc[n+]1CC(=O)c1cccc(C(F)(F)F)c1` [AB27275], the IC50 amounted to 63 nM with Con-NCI-H82 cell and 886 nM in the assay with ov-NNMT NCI-H82 cell.
In the same order, the values of `Cc1cc(NCc2ccccc2)cc[n+]1CC(=O)c1cccc(OC(F)(F)F)c1` [AB27276] are 92 nM and 1130 nM.
In the case of `Cc1ccc(C(=O)C[n+]2ccc(NCc3ccccc3)c(C)c2C)cc1` [AB27278], the IC50 stood at 21 nM with Con-NCI-H82 cell and 284 nM in the assay with ov-NNMT NCI-H82 cell.
The matching figures for `Cc1ccc(C(=O)CN(C)c2cc[n+](Cc3ccccc3)cc2)cc1` [AB27285]: 364 nM and 1350 nM.
The matching figures for `Cc1ccc2c(c1)C(=O)C([n+]1ccc3cn(Cc4ccccc4)cc3c1)CC2` (stereo not shown) [AB27287]: 198 nM and 2540 nM.
In the same order, the values of `O=C1c2cc(C(F)(F)F)ccc2CCC1[n+]1ccc2cn(Cc3ccccc3)cc2c1` (stereo not shown) [AB27288] are 344 nM and 2490 nM.
As to `O=C1c2cc(OC(F)(F)F)ccc2CCC1[n+]1ccc2cn(Cc3ccccc3)cc2c1` (stereo not shown) [AB27289], the IC50 in the assay with Con-NCI-H82 cell worked out at 285 nM; in the assay on ov-NNMT NCI-H82 cell, 2050 nM.
For the compound `O=C1c2ccc(C(F)(F)F)cc2CCC1n1ccc2c[n+](Cc3ccccc3)ccc21` (stereo not shown) [AB27290], the IC50 is 91 nM with Con-NCI-H82 cell and 944 nM in the assay with ov-NNMT NCI-H82 cell.
The matching figures for `O=C1c2ccc(OC(F)(F)F)cc2CCC1n1ccc2c[n+](Cc3ccccc3)ccc21` (stereo not shown) [AB27291]: 79 nM and 1040 nM.
For the compound `O=C1c2ccc(C(F)(F)F)cc2CCC1[n+]1ccc2cn(Cc3ccccc3)cc2c1` (stereo not shown) [AB27294], the IC50 in the assay on Con-NCI-H82 cell was determined as 1050 nM; in the assay with ov-NNMT NCI-H82 cell, 6530 nM.
The matching figures for `O=C1c2ccc(OC(F)(F)F)cc2CCC1[n+]1ccc2cn(Cc3ccccc3)cc2c1` (stereo not shown) [AB27295]: 717 nM and 8480 nM.
As to `Cc1ccc(C(=O)C[n+]2ccc3cn(Cc4ccccc4)cc3c2)cc1` [AB27296], the IC50 is 396 nM in the assay with Con-NCI-H82 cell and 3580 nM with ov-NNMT NCI-H82 cell.
In the same order, the values of `Cc1ccc(C(=O)CN(CC(=O)c2ccc(C)cc2)c2cc[n+](Cc3ccccc3)cc2)cc1` [AB27299] are 674 nM and 1840 nM.
The matching figures for `CC(=O)C[n+]1ccc2c(ccn2C2CCc3ccc(Cl)cc3C2=O)c1` (stereo not shown) [AB27313]: 4370 nM and 7360 nM.
For the compound `O=C(C[n+]1ccc2c(ccn2C2CCc3ccc(Cl)cc3C2=O)c1)c1ccccc1` (stereo not shown) [AB27314], the IC50 was determined as 3040 nM with Con-NCI-H82 cell and 5580 nM in the assay on ov-NNMT NCI-H82 cell.
In the same order, the values of `Cc1ccc(C(=O)C[n+]2ccc(NCc3ccccc3)cc2C)cc1C` [AB27327] are 67 nM and 1040 nM.
The matching figures for `Cc1ccc(C(=O)C[n+]2ccc(NCc3cccc(C)n3)cc2C)cc1` [AB27328]: 2800 nM and 8470 nM.
In the same order, the values of `Cc1ccc(C(=O)C[n+]2ccc(NCc3ccc(C)nc3)cc2C)cc1` [AB27330] are 5110 nM and 13500 nM.
As to `Cn1cc(Cc2ccccc2)c2cc[n+](C3CCc4ccc(OC(F)(F)F)cc4C3=O)cc21` (stereo not shown) [AB27339], the results for the IC50 with Con-NCI-H82 cell and in the assay on ov-NNMT NCI-H82 cell were 341 nM and 2900 nM, respectively.
The matching figures for `Cc1ccc(C(=O)C[n+]2ccc3c(Cc4ccccc4)cn(C)c3c2)cc1` [AB27341]: 3590 nM and 10500 nM.
Turning to `Cc1ccc(C(=O)C[n+]2ccc3c(Cc4ccccc4)cn(C)c3c2C)cc1` [AB27343], the IC50 in the assay with Con-NCI-H82 cell came out at 2040 nM; in the assay on ov-NNMT NCI-H82 cell it was 5870 nM.
For `O=C1c2cc(F)ccc2CCC1n1ccc2c[n+](Cc3ccccc3)ccc21` (stereo not shown) [AB27353], the IC50 was determined as 19 nM in the assay on Con-NCI-H82 cell and 332 nM with ov-NNMT NCI-H82 cell.
The matching figures for `CC(c1ccccc1)[n+]1ccc2c(ccn2C2CCc3ccc(F)cc3C2=O)c1` (stereo not shown) [AB27354]: 13 nM and 222 nM.
The matching figures for `Cc1cc2c[n+](Cc3ccccc3)ccc2n1CC(=O)c1ccc(C(F)(F)F)cc1` [AB27357]: 74 nM and 1220 nM.
The matching figures for `Cc1cc2c[n+](Cc3ccccc3)ccc2n1CC(=O)c1ccc(OC(F)(F)F)cc1` [AB27358]: 83 nM and 1090 nM.
In the case of `Cc1cn(C2CCc3ccc(F)cc3C2=O)c2cc[n+](Cc3ccccc3)cc12` (stereo not shown) [AB27460], the IC50 in the assay on Con-NCI-H82 cell turned out to be 34 nM; with ov-NNMT NCI-H82 cell, 438 nM.
For the compound `Cc1cn(CC(=O)c2ccc(OC(F)(F)F)cc2)c2cc[n+](Cc3ccccc3)cc12` [AB27461], the results for the half-inhibitory concentration (IC50) with Con-NCI-H82 cell and in the assay with ov-NNMT NCI-H82 cell were 1980 nM and 9350 nM, respectively.
In the same order, the values of `Cc1cn(C2CCc3ccc(C(F)(F)F)cc3C2=O)c2cc[n+](Cc3ccccc3)cc12` (stereo not shown) [AB27464] are 175 nM and 1350 nM.
As for `Cc1cn(C2CCc3ccc(OC(F)(F)F)cc3C2=O)c2cc[n+](Cc3ccccc3)cc12` (stereo not shown) [AB27465], the IC50 in the assay on Con-NCI-H82 cell came to 160 nM; in the assay on ov-NNMT NCI-H82 cell, 1030 nM.
Take `Cc1cn(C2CCc3ccc(C(F)(F)F)cc3C2=O)c2cc[n+](C(C)c3ccccc3)cc12` (stereo not shown) [AB27468]: the IC50 in the assay with Con-NCI-H82 cell was 571 nM; in the assay on ov-NNMT NCI-H82 cell, 6030 nM.
In the same order, the values of `Cc1cn(C2CCc3ccc(OC(F)(F)F)cc3C2=O)c2cc[n+](C(C)c3ccccc3)cc12` (stereo not shown) [AB27469] are 427 nM and 5430 nM.
As for `Cc1cc2c[n+](Cc3ccccc3)ccc2n1C1CCc2ccc(F)cc2C1=O` (stereo not shown) [AB27473], the IC50 with Con-NCI-H82 cell came to 81 nM; with ov-NNMT NCI-H82 cell, 1210 nM.
In the same order, the values of `O=C1c2cc(F)ccc2CCC1[n+]1ccc2cn(Cc3ccccc3)cc2c1` (stereo not shown) [AB27477] are 164 nM and 1980 nM.
In the same order, the values of `Cc1cn(CC(=O)c2cccc(F)c2)c2cc[n+](Cc3ccccc3)cc12` [AB27478] are 23 nM and 283 nM.
In the same order, the values of `Cc1cn(CC(=O)c2cccc(F)c2)c2cc[n+](C(C)c3ccccc3)cc12` (stereo not shown) [AB27479] are 258 nM and 2050 nM.
On to `CC(c1ccccc1)n1cc2cc[n+](C3CCc4ccc(F)cc4C3=O)cc2c1` (stereo not shown) [AB27480], for which the results for the IC50 with Con-NCI-H82 cell and in the assay on ov-NNMT NCI-H82 cell were 181 nM and 2340 nM, respectively.
As to `Cc1ccc(C(=O)C[n+]2cc3c(cc2Cl)c(Cc2ccccc2)cn3C)cc1` [AB27482], the IC50 in the assay on Con-NCI-H82 cell worked out at 3420 nM; in the assay on ov-NNMT NCI-H82 cell it was 9570 nM.
In the same order, the values of `Cc1c(Cl)c2c[n+](Cc3ccccc3)ccc2n1CC(=O)c1cccc(C(F)(F)F)c1` [AB27484] are 1190 nM and 8030 nM.
The matching figures for `Cc1c(Cl)c2c[n+](Cc3ccccc3)ccc2n1C1CCc2ccc(Cl)cc2C1=O` (stereo not shown) [AB27485]: 504 nM and 7100 nM.
In the same order, the values of `O=C(Cn1c(Br)cc2c[n+](Cc3ccccc3)ccc21)c1cccc(C(F)(F)F)c1` [AB27490] are 19 nM and 319 nM.
Take `Cc1c(C)n(CC(=O)c2cccc(C(F)(F)F)c2)c2cc[n+](Cc3ccccc3)cc12` [AB27493]: the IC50 with Con-NCI-H82 cell turned out to be 281 nM; in the assay on ov-NNMT NCI-H82 cell, 3450 nM.
The matching figures for `O=C(Cn1ncc2c[n+](Cc3ccccc3)ccc21)c1cccc(C(F)(F)F)c1` [AB27499]: 921 nM and 6840 nM.
